# Measured values published in ChEMBL document CHEMBL3525951, “Reevaluation of the microsomal metabolism of montelukast: major contribution by CYP2C8 at clinically relevant concentrations” (Drug Metab Dispos, 2011).
# Legend:
# Cytochrome P450 3A4 [1] = target: T1, Cytochrome P450 3A4 (Homo sapiens, UniProt P08684); assay: Activity of recombinant human CYP3A4 expressed in microsomes isolated from baculovirus infected insect cell assessed as enzyme-mediated compound depletion at 0.02 uM after 30 mins by LC-MS analysis; settings: 0.5 h
# Cytochrome P450 2A6 [2] = target: T2, Cytochrome P450 2A6 (Homo sapiens, UniProt P11509); assay: Activity of recombinant human CYP2A6 expressed in microsomes isolated from baculovirus infected insect cell assessed as enzyme-mediated metabolite formation at 10 uM after 60 mins by LC-MS analysis; assay type: ADME; settings: 1 h
# T2 sequence (P11509 whole entry): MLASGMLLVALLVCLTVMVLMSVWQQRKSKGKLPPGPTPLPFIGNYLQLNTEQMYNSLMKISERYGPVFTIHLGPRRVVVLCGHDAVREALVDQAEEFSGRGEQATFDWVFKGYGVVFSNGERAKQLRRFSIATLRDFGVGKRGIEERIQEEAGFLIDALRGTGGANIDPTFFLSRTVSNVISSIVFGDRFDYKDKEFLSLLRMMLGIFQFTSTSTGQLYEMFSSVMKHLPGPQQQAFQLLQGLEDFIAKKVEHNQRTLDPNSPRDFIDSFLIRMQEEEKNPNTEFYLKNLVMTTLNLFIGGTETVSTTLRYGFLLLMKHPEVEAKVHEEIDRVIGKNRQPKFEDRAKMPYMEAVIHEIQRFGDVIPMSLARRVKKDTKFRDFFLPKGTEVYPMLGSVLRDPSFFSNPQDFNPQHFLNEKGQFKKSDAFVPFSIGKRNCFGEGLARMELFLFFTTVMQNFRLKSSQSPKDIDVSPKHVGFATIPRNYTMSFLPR
# [3] = Cmax in human at 10 mg, po; assay type: ADME, organism-based; design: dose 10 mg, route oral; settings: in vivo
# Liver microsome [4] = assay: (§1) Drug metabolism in human liver microsomes assessed as 2-(1-(((1R)-1-(3-(2-(7-chloroquinolin-2-yl)vinyl)phenyl)-3-(2-(1,2-dihydroxypropan-2-yl)phenyl)propylthio)methyl)cyclopropyl)acetic acid formation at 0.4 uM after 15 mins by LC-MS analysis in presence of CYP2C8 inhibitor gemfibrozil 1-O-beta glucuronide and trimethoprim, CYP2C9 inhibitor sulfaphenazole, and CYP2E1 inhibitor DDC; assay type: ADME; settings: 0.25 h
# Cytochrome P450 2C19 = Cytochrome P450 2C19 (Homo sapiens, UniProt P33261); assay: (§2) Activity of recombinant human CYP2C19 expressed in microsomes isolated from baculovirus infected insect cell assessed as enzyme-mediated (R)-2-(1-((1-(3-(2-(7-chloroquinolin-2-yl)vinyl)phenyl)-3-(4-hydroxy-2-(2-hydroxypropan-2-yl)phenyl)propylthio)methyl)cyclopropyl)acetic acid formation at 1 uM after 60 mins by LC-MS analysis; assay type: ADME; settings: 1 h
# Plasma [5] = assay: Fraction unbound in human plasma; assay type: ADME, cell-free
# Cytochrome P450 3A4 [6] = target: T1, Cytochrome P450 3A4; assay: as §2, with “CYP3A4” for “CYP2C19”; settings: 1 h
# Liver microsome [7] = assay: Drug metabolism in human liver microsomes assessed as 2-(1-(((1R)-1-(3-(2-(7-chloroquinolin-2-yl)vinyl)phenyl)-3-(2-(1,2-dihydroxypropan-2-yl)phenyl)propylthio)methyl)cyclopropyl)acetic acid formation at 0.02 to 0.4 uM preincubated for 3 mins followed by beta-NADPH addition by LC-MS analysis; assay type: ADME
# Liver microsome [8] = assay: Drug metabolism in human liver microsomes assessed as (R)-2-(1-((1-(3-(2-(7-chloroquinolin-2-yl)vinyl)phenyl)-3-(4-hydroxy-2-(2-hydroxypropan-2-yl)phenyl)propylthio)methyl)cyclopropyl)acetic acid formation at 0.1 uM after 12 mins by LC-MS analysis in presence of 2-(1-(((S)-1-(3-(2-(7-chloroquinolin-2-yl)vinyl)phenyl)-3-(2-(2-hydroxypropan-2-yl)phenyl)propylsulfinyl)methyl)cyclopropyl)acetic acid; assay type: ADME; settings: 0.2 h
# Liver microsome [9] = assay: Drug metabolism in human liver microsomes assessed as 2-(1-(((1R)-1-(3-(2-(7-chloroquinolin-2-yl)vinyl)phenyl)-3-hydroxy-3-(2-(2-hydroxypropan-2-yl)phenyl)propylthio)methyl)cyclopropyl)acetic acid formation at 0.4 uM after 15 mins by LC-MS analysis in presence of CYP1A2 inhibitor furafylline, CYP2B6 inhibitor clopidogrel, CYP2D6 inhibitor quinidine and CYP2C9 inhibitor sulfaphenazole; assay type: ADME; settings: 0.25 h
# Liver microsome [10] = assay: Drug metabolism in human liver microsomes assessed as 2-(1-(((1R)-1-(3-(2-(7-chloroquinolin-2-yl)vinyl)phenyl)-3-hydroxy-3-(2-(2-hydroxypropan-2-yl)phenyl)propylthio)methyl)cyclopropyl)acetic acid formation at 0.1 uM after 12 mins by LC-MS analysis in presence of 2-(1-(((S)-1-(3-(2-(7-chloroquinolin-2-yl)vinyl)phenyl)-3-(2-(2-hydroxypropan-2-yl)phenyl)propylsulfinyl)methyl)cyclopropyl)acetic acid; assay type: ADME; settings: 0.2 h
# Liver microsome [11] = assay: Drug metabolism in human liver microsomes assessed as 2-(1-(((1R)-1-(3-(2-(7-chloroquinolin-2-yl)vinyl)phenyl)-3-hydroxy-3-(2-(2-hydroxypropan-2-yl)phenyl)propylthio)methyl)cyclopropyl)acetic acid formation at 0.4 uM after 15 mins by LC-MS analysis in presence of CYP3A4 inhibitor ketoconazole and troleandomycin; assay type: ADME; settings: 0.25 h
# [12] = Oral bioavailability in human at 10 mg administered through tablet; assay type: ADME, organism-based; settings: in vivo
# Liver microsome [13] = assay: Drug metabolism in human liver microsomes assessed as 2-(1-(((1R)-1-(3-(2-(7-chloroquinolin-2-yl)vinyl)phenyl)-3-hydroxy-3-(2-(2-hydroxypropan-2-yl)phenyl)propylthio)methyl)cyclopropyl)acetic acid formation at 0.02 to 0.4 uM preincubated for 3 mins followed by beta-NADPH addition by LC-MS analysis; assay type: ADME
# Liver microsome [14] = assay: Drug metabolism in human liver microsomes assessed as (R)-2-(1-((1-(3-(2-(7-chloroquinolin-2-yl)vinyl)phenyl)-3-(4-hydroxy-2-(2-hydroxypropan-2-yl)phenyl)propylthio)methyl)cyclopropyl)acetic acid formation at 0.4 uM after 15 mins by LC-MS analysis in presence of CYP2C8 inhibitor gemfibrozil 1-O-beta glucuronide, CYP2A6 inhibitor 8-methoxy-psoralen and DDC; assay type: ADME; settings: 0.25 h
# [15] = Plasma protein binding in human; assay type: ADME, cell-free
# Liver microsome [16] = assay: Drug metabolism in human liver microsomes at 1 to 10 uM preincubated for 3 mins followed by beta-NADPH addition by LC-MS analysis; assay type: ADME; settings: TDE = time-dependent effect
# [17] = Plasma clearance in human at 3 to 18 mg, iv; assay type: ADME, organism-based
# Liver microsome [18] = assay: Drug metabolism in human liver microsomes assessed as (R)-2-(1-((1-(3-(2-(7-chloroquinolin-2-yl)vinyl)phenyl)-3-(4-hydroxy-2-(2-hydroxypropan-2-yl)phenyl)propylthio)methyl)cyclopropyl)acetic acid formation at 0.4 uM after 15 mins by LC-MS analysis in presence of CYP1A2 inhibitor furafylline, CYP2B6 inhibitor clopidogrel, CYP2D6 inhibitor quinidine and CYP2C9 inhibitor sulfaphenazole; assay type: ADME; settings: 0.25 h
# Liver microsome [19] = assay: Drug metabolism in human liver microsomes assessed as 2-(2-((R)-3-((1-(carboxymethyl)cyclopropyl)methylthio)-3-(3-(2-(7-chloroquinolin-2-yl)vinyl)phenyl)propyl)phenyl)-2-hydroxypropanoic acid formation at 0.02 to 0.4 uM preincubated for 3 mins followed by beta-NADPH addition by LC-MS analysis; assay type: ADME
# Plasma [20] = assay: Unbound plasma concentration in human at 10 mg, po; assay type: ADME, cell-free
# Liver microsome [21] = assay: Drug metabolism in human liver microsomes assessed as (R)-2-(1-((1-(3-(2-(7-chloroquinolin-2-yl)vinyl)phenyl)-3-(4-hydroxy-2-(2-hydroxypropan-2-yl)phenyl)propylthio)methyl)cyclopropyl)acetic acid formation at 0.02 to 0.4 uM preincubated for 3 mins followed by beta-NADPH addition by LC-MS analysis; assay type: ADME
# Liver microsome [22] = assay: as §1, with “0.05” for “0.4”, “and” for “and trimethoprim,”, “sulfaphenazole” for “sulfaphenazole, and CYP2E1 inhibitor DDC”; assay type: ADME; settings: 0.25 h
# Liver microsome [23] = assay: Drug metabolism in human liver microsomes assessed as 2-(1-(((1R)-1-(3-(2-(7-chloroquinolin-2-yl)vinyl)phenyl)-3-(2-(1,2-dihydroxypropan-2-yl)phenyl)propylthio)methyl)cyclopropyl)acetic acid formation at 0.4 uM after 15 mins by LC-MS analysis in presence of CYP1A2 inhibitor furafylline, CYP2B6 inhibitor clopidogrel, CYP2D6 inhibitor quinidine and CYP2C9 inhibitor sulfaphenazole; assay type: ADME; settings: 0.25 h
# Liver microsome [24] = assay: Drug metabolism in human liver microsomes assessed as 2-(1-(((1R)-1-(3-(2-(7-chloroquinolin-2-yl)vinyl)phenyl)-3-(2-(1,2-dihydroxypropan-2-yl)phenyl)propylthio)methyl)cyclopropyl)acetic acid formation at 0.1 uM after 12 mins by LC-MS analysis in presence of 2-(1-(((S)-1-(3-(2-(7-chloroquinolin-2-yl)vinyl)phenyl)-3-(2-(2-hydroxypropan-2-yl)phenyl)propylsulfinyl)methyl)cyclopropyl)acetic acid; assay type: ADME; settings: 0.2 h
# Cytochrome P450 3A4 [25] = target: T1, Cytochrome P450 3A4; assay: Activity of recombinant human CYP3A4 expressed in microsomes isolated from baculovirus infected insect cell assessed as enzyme-mediated 2-(1-(((1R)-1-(3-(2-(7-chloroquinolin-2-yl)vinyl)phenyl)-3-hydroxy-3-(2-(2-hydroxypropan-2-yl)phenyl)propylthio)methyl)cyclopropyl)acetic acid formation at 1 uM after 60 mins by LC-MS analysis; settings: 1 h
# Cytochrome P450 2C9 = Cytochrome P450 2C9 (Homo sapiens, UniProt P11712); assay: Inhibition of recombinant human CYP2C9 expressed in microsomes isolated from baculovirus infected insect cell after 10 mins
# Liver microsome [26] = assay: Drug metabolism in human liver microsomes at 1 to 10 uM preincubated for 3 mins followed by beta-NADPH addition by LC-MS analysis in presence of albumin; assay type: ADME
# Cytochrome P450 2A6 [27] = target: T2, Cytochrome P450 2A6; assay: Activity of recombinant human CYP2A6 expressed in microsomes isolated from baculovirus infected insect cell assessed as enzyme-mediated compound depletion at 0.02 uM after 30 mins by LC-MS analysis; assay type: ADME; settings: 0.5 h
# Liver microsome [28] = assay: Drug metabolism in human liver microsomes assessed as 2-(1-(((S)-1-(3-(2-(7-chloroquinolin-2-yl)vinyl)phenyl)-3-(2-(2-hydroxypropan-2-yl)phenyl)propylsulfinyl)methyl)cyclopropyl)acetic acid formation at 0.02 to 0.4 uM preincubated for 3 mins followed by beta-NADPH addition by LC-MS analysis; assay type: ADME
# T1 sequence (P08684 whole entry): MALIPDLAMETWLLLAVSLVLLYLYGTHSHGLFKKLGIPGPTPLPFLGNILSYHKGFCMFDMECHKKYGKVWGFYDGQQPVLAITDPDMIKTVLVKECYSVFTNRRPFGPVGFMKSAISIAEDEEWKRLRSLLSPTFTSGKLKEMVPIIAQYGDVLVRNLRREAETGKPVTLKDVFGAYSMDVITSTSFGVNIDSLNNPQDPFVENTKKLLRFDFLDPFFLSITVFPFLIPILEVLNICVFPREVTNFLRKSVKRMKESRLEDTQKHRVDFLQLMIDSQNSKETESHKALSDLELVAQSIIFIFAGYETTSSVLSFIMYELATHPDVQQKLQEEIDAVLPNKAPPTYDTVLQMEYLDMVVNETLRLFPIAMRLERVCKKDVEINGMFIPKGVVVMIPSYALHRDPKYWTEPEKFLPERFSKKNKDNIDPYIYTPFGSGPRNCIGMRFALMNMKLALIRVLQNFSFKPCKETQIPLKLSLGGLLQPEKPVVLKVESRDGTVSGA
# Chain of Cytochrome P450 2C19 (P33261 whole entry): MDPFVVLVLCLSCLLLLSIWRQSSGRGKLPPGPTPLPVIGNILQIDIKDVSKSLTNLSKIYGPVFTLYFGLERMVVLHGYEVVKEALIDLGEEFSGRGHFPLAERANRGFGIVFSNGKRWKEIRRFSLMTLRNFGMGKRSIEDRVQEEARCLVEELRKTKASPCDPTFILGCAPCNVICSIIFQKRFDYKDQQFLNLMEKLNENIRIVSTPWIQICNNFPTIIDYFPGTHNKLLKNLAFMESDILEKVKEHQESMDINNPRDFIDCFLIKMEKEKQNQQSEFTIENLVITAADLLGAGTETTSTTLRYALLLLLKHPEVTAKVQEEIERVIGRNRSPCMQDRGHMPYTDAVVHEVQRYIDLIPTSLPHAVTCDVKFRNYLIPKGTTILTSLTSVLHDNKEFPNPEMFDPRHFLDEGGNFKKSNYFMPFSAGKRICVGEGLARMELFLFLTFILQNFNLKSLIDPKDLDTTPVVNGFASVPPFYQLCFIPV
# Chain of Cytochrome P450 2C9 (P11712 whole entry): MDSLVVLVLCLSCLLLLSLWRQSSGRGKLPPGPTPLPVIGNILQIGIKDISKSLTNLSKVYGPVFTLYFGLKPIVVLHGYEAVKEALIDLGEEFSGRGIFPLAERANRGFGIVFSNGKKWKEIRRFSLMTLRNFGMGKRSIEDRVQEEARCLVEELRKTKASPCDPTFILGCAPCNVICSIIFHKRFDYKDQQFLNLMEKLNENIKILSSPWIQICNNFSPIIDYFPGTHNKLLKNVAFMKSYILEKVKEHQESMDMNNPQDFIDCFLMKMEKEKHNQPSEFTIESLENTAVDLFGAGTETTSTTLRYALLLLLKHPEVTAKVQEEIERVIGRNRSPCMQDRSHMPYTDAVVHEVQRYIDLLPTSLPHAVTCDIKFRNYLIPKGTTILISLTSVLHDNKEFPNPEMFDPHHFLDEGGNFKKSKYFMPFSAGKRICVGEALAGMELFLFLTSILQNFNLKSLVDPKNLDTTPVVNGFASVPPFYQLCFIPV
compound,measurement,setting,value
CC(C)(O)c1ccccc1CC[C@@H](SCC1(CC(=O)[O-])CC1)c1cccc(/C=C/c2ccc3ccc(Cl)cc3n2)c1.[Na+] [MONTELUKAST SODIUM],Drug metabolism,Cytochrome P450 3A4 [1],metabolite_detected
same,Drug metabolism,Cytochrome P450 2A6 [2],metabolite_detected
same,Cmax,[3],500 ng/mL
same,Drug metabolism,Liver microsome [4],metabolite_not_detected
same,Drug metabolism,Cytochrome P450 2C19,metabolite_detected
same,Fu,Plasma [5],0.4%
same,Drug metabolism,Cytochrome P450 3A4 [6],metabolite_detected
same,Drug metabolism,Liver microsome [7],metabolite_detected
same,Drug metabolism,Liver microsome [8],metabolite_not_detected
same,Drug metabolism,Liver microsome [9],metabolite_detected
same,Drug metabolism,Liver microsome [10],metabolite_detected
same,Drug metabolism,Liver microsome [11],metabolite_not_detected
same,bioavailability,[12],60%
same,Drug metabolism,Liver microsome [13],metabolite_detected
same,Drug metabolism,Liver microsome [14],metabolite_not_detected
same,fraction unbound,[15],< 0.01
same,Drug metabolism,Liver microsome [16],tde
same,clearance,[17],0.578 mL/min/kg
same,Drug metabolism,Liver microsome [18],metabolite_detected
same,Drug metabolism,Liver microsome [19],metabolite_detected
same,Cp(f),Plasma [20],3 nM
same,Drug metabolism,Liver microsome [21],metabolite_detected
same,Drug metabolism,Liver microsome [22],metabolite_not_detected
same,Drug metabolism,Liver microsome [23],metabolite_detected
same,Drug metabolism,Liver microsome [24],metabolite_not_detected
same,Drug metabolism,Cytochrome P450 3A4 [25],metabolite_detected
same,Ki,Cytochrome P450 2C9,7.4 µM
same,Drug metabolism,Liver microsome [26],metabolite_not_detected
same,Drug metabolism,Cytochrome P450 2A6 [27],metabolite_detected
same,Drug metabolism,Liver microsome [28],metabolite_detected
